The values below are quoted from earlier work in patent US20230039272A1, “COMPOSITION FOR IMPROVED ENERGY, FOCUS AND CLARITY” (Gwella Mushrooms Inc., priority 2021, published 2023).

Each structure is given as a SMILES string. Residues, ends and D or L forms follow the SMILES beside them. *: point of attachment. PhAc = O=C(Cc1ccccc1)*

The conditions of series [1]: patients with mild to moderate dementia.
For series [2] the following is noted: high doses for long periods of time.
Series [3] deals with Amyloid Beta exposure.

Consider `NC(=O)CN1CC(O)CC1=O` (stereo not shown) [Oxiracetam], for which, in series [1], the “quality of life scale” value is “improved quality of life scale”; the “test scores on logical performance, attention, concentration, memory and spatial orientation” value is “higher test scores”. In addition, the “step-down retention performance and acquisition performance in active-avoidance situations” value (in vivo) is “improve step-down retention performance and acquisition performance”. Further, for the setting “pre-clinical studies”, the learning of animals result is “improve learning of animals”. Moreover, in series [2], the safety entry is given as “save, even at high doses for long periods of time”.
Turning to `CCOC(=O)CNC(=O)[C@@H]1CCCN1C(=O)Cc1ccccc1` [N-phenylacetyl-L-prolylglycine ethyl ester] (PhAc-Pro-Gly-OEt), the cognition restoring effect entry in series [3] (animal models of Alzheimer's Disease, preliminary studies) was “cognition restoring effect”. In addition, the “neuroprotective effect (cell viability, calcium homeostasis, Reactive Oxygen Species levels, mitochondrial function, tau phosphorylation, neurite outgrowth)” value in series [3] (impairments caused by Amyloid Beta exposure) is given as “neuroprotective effect”.
